For eight compounds, TGI results are on record in PubChem BioAssay (NCI).

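1) Cells in 96-well plates. 2) Compound, 48 h, 5 concentrations. 3) Linear interpolation between surrounding doses. 4) Unreached endpoint = highest concentration. TGI: concentration producing complete growth inhibition.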

Common to all, as to experiment: NCI-60 cell line screen, 48 h
For assay [1], the system named is 786-0 renal.
The subject of assay [2] is CAKI-1 renal.
In assay [3] the test system is COLO 205 colon.
Assay [4] concerns HCT-15 colon.
Assay [5] deals with M14 melanoma.
For assay [6], the system named is MCF7 breast.
For assay [7], the system named is MOLT-4 leukemia.
Assay [8] has as its system NCI-H226 lung.
Assay [9] relates to SF-295 CNS.
Assay [10] concerns SK-MEL-28 melanoma.
Assay [11] relates to SNB-75 CNS.
Assay [12] has as its system TK-10 renal.
In assay [13] the test system is UACC-257 melanoma.

Turning to `CN1CCN(c2c(Cl)cc(Cl)c3[nH]c4ccccc4c(=O)c23)CC1`, the TGI in assay [1] was > 43.3 µM; in assay [2] it was 20.6 µM; in [3], 25.3 µM; in assay [4], 17.1 µM; in [5], 19.5 µM; in [6], 15.8 µM. In addition, the TGI in assay [7] came to 9.96 µM; in assay [8], 23 µM; in assay [9] it was 20.3 µM; in assay [10], 26.8 µM; in [11], 22.5 µM; in assay [12], 26.2 µM. In [13], the TGI is 22.1 µM.

Take `Cc1ccc(C2=NOC(=O)[C@@H]3CCCC[C@@H]23)cc1`: the TGI in [1], in assay [2], in [3], in assay [4], in assay [5] and in [6] was > 100 µM in each case. The TGI in assay [7], in assay [8], in assay [9], in [10], in assay [11] and in assay [12] was > 100 µM each time. Further, the TGI in [13] is > 100 µM.

For `COc1ccc2c(c1)C(N)=C(c1ccccc1)C2=O`, the TGI in assay [1], in assay [2], in assay [3], in [4], in assay [5] and in assay [6] was > 100 µM throughout. The TGI was > 100 µM in assay [7]; > 100 µM in assay [8]; > 100 µM in assay [9]; > 100 µM in [10]; 70 µM in [11]; > 100 µM in assay [12]. Besides, in assay [13], the TGI was > 100 µM.

Turning to `CC1OC2=N[C@@H]1C(=O)N[C@@H](C(C)C)C1=N[C@H](C(=O)N[C@@H](C(C)C)C3=N[C@H](C(=O)N[C@@H](C(C)C)C4=N[C@H](C(=O)N[C@H]2C(C)C)C(C)O4)C(C)O3)C(C)O1` (some centres undefined), the TGI in assay [1], in assay [2], in assay [3], in assay [4], in assay [5] and in assay [6] was > 10 µM in each case. Besides, the TGI in assay [7], in [8], in [9], in assay [10], in assay [11] and in [12] was > 10 µM in each case. In addition, the TGI in assay [13] is > 10 µM.

Consider `COc1cc(/C=C/C(=O)c2c(=O)o[nH][n+]2-c2ccccc2)ccc1[O-]`, for which the TGI is 4.94 µM in assay [1]; 9.41 µM in [2]; 27.2 µM in [3]; 6.12 µM in assay [4]; 9.64 µM in assay [5]; 13.8 µM in assay [6]. The TGI in [7] is 5.59 µM; in assay [8], > 24.1 µM; in [9], 31.6 µM; in [10] it was 8.85 µM; in assay [11], 8.7 µM; in [12] it was 10.5 µM. For the same compound, the TGI in [13] amounted to 12.4 µM.

Regarding `c1ccc(CCNCc2ccco2)nc1`, the TGI in assay [1], in assay [2], in [3], in assay [4], in assay [5] and in assay [6] was > 100 µM throughout. Besides, the TGI in assay [7], in assay [8], in assay [9], in [10], in assay [11] and in assay [12] was > 100 µM each time. In addition, the TGI in [13] was > 100 µM.

For `Cc1cc(C)c(P2C(=C(O[Si](C(C)C)(C(C)C)C(C)C)C(C)(C)C)C2(c2ccccc2)c2ccccc2)c(C)c1` (centres undefined), the TGI in assay [1], in [2], in [3], in assay [4], in assay [5] and in assay [6] was > 100 µM throughout. The TGI in assay [7], in [8], in assay [9], in assay [10], in assay [11] and in assay [12] was > 100 µM in each case. In [13], the TGI is > 100 µM.

With `O=C1C=CC(=O)C(CNc2ccc(C(=O)OC34CC5CC(CC(C5)C3)C4)cc2)=C1`, the TGI in [1] is 23 µM; in [2] it was 2.71 µM; in assay [3], 6.81 µM; in [4], 12.3 µM; in assay [5], 31.1 µM; in [6], 27.5 µM. The TGI turned out to be 8.34 µM in [7]; 4.47 µM in assay [8]; 39.2 µM in assay [9]; 17.8 µM in assay [10]; 18.1 µM in [11]; 23.8 µM in assay [12]. Besides, the TGI in [13] came to 18.2 µM.
